Laboratory results as given in US12344610B2, “APOL1 inhibitors and methods of use” (Maze Therapeutics, Inc., priority 2022, dated 2025).

Columns and labels:
Type in all cases: cell-based
[1] = test system: Trypanosoma brucei Lister 427 VSG221 with APOL1 G2 recombinant protein; test: APOL1 G2 trypanosome cell rescue assay (Example B5); conditions: Trypanosoma brucei, 20 h, read-out: APOL1 G2 Trypanosome Rescue EC50, Trypanosoma brucei Lister 427 VSG221 with APOL1 G2 recombinant protein, 20 hours, CellTiter-Glo; geometric mean of at least 2 assay runs; † = single assay run
How it was run: (§1)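 Compounds in duplicate 2-fold, 11-point series with 0.4% DMSO final. Next, tag-free mature APOL1 variant protein went in from a 2 μg/mL solution, then trypanosomes to 250 per well. Plates incubated 20 h humidified at 37° C, equilibrated to room temperature, and CellTiter-Glo added for luminescence.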

[2] = test system: HEK293 cells overexpressing APOL1 G2; test: APOL1 G2 HEK293 cell rescue assay (reversal of cell death caused by overexpression of APOL1); conditions: Homo sapiens, HEK293, HEK293 overexpressing APOL1 G2; geometric mean of at least 2 assay runs; † = single assay run
How it was run: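 EC50 is the half-maximal effective concentration for reversing cell death driven by APOL1 G2 overexpression in HEK293 cells. Reported as geometric mean of at least 2 runs on separate days, each run averaging duplicate wells per plate; some values from a single run.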

[3] = test system: Trypanosoma brucei Lister 427 VSG221 with APOL1 G0 recombinant protein; test: APOL1 G0 trypanosome cell rescue assay (Example B5); conditions: Trypanosoma brucei, 20 h, read-out: APOL1 G0 Trypanosome Rescue EC50, Trypanosoma brucei Lister 427 VSG221 with APOL1 G0 recombinant protein, 20 hours, CellTiter-Glo; geometric mean of at least 2 assay runs; † = single assay run
How it was run: as §1

[4] = test system: Trypanosoma brucei Lister 427 VSG221 with APOL1 G1 recombinant protein; test: APOL1 G1 trypanosome cell rescue assay (Example B5); conditions: Trypanosoma brucei, 20 h, read-out: APOL1 G1 Trypanosome Rescue EC50, Trypanosoma brucei Lister 427 VSG221 with APOL1 G1 recombinant protein, 20 hours, CellTiter-Glo; geometric mean of at least 2 assay runs; † = single assay run
How it was run: as §1

| Structure (SMILES) | EC50 [1] [nM] | EC50 [2] [nM] | EC50 [3] [nM] | EC50 [4] [nM] |
| --- | --- | --- | --- | --- |
| Cc1cc(OCCN2CCC3(CC2)C(=O)Nc2ccc(Cl)cc23)ccc1C(N)=O [Compound 49, 4-(2-{5-chloro-2-oxo-1,2-dihydrospiro[indole-3,4′-piperidin]-1′-yl}ethoxy)-2-methylbenzamide] | 109 | 66.4 | 213 | 304 |
| CP(C)(=O)C1(c2ccc(OCCN3CCC4(CC3)C(=O)Nc3ccc(Cl)cc34)cc2)CC1 [Compound 343, 5-chloro-1′-(2-{4-[1-(dimethylphosphoryl)cyclopropyl]phenoxy}ethyl)-1,2-dihydrospiro[indole-3,4′-piperidin]-2-one] | 64.2 | 162 | 174 | 203 |
| CN1C(=O)CCc2cc(OCCN3CCC4(CC3)C(=O)Nc3ccc(C#N)cc34)cnc21 [Compound 79, 1′-{2-[(8-methyl-7-oxo-5,6,7,8-tetrahydro-1,8-naphthyridin-3-yl)oxy]ethyl}-2-oxo-1,2-dihydrospiro[indole-3,4′-piperidine]-5-carbonitrile] | 293 | 207 | 846 | 952 |
| CS(=O)(=O)N1CCCc2cc(OCCN3CCC4(CC3)C(=O)Nc3ccc(Cl)cc34)ccc21 [Compound 53, 5-chloro-1′-{2-[(1-methanesulfonyl-1,2,3,4-tetrahydroquinolin-6-yl)oxy]ethyl}-1,2-dihydrospiro[indole-3,4′-piperidin]-2-one] | 47.8 | 52.9 | 156 | 157 |
| C[C@]1(O)C[C@@H](N2C(=O)Cc3cc(OCCN4CCC5(CC4)C(=O)Nc4ccc(C(F)F)cc45)cnc32)C1 [Compound 346, 5-(difluoromethyl)-1′-[2-({2-oxo-1-[(cis)-3-hydroxy-3-methylcyclobutyl]-1H,2H,3H-pyrrolo[2,3-b]pyridin-5-yl]oxy)ethyl]-1,2-dihydrospiro[indole-3,4′-piperidin]-2-one] | 37.7 | 34.3 | 83.6 | 116 |
| NC(=O)c1ccc(OCCN2CCC3(CC2)C(=O)Nc2ccc(Cl)cc23)cc1F [Compound 46, 4-(2-{5-chloro-2-oxo-1,2-dihydrospiro[indole-3,4′-piperidin]-1′-yl}ethoxy)-2-fluorobenzamide] | 50.5 | 72.8 | 156 | 215 |
| O=C1CCc2cc(OCCN3CCC4(CC3)C(=O)Nc3ccc(Cl)cc34)cnc2N1C1CC(CO)C1 (stereo not drawn) [Compound 326, 5-chloro-1′-[2-({8-[3-(hydroxymethyl)cyclobutyl]-7-oxo-5,6,7,8-tetrahydro-1,8-naphthyridin-3-yl}oxy)ethyl]-1,2-dihydrospiro[indole-3,4′-piperidin]-2-one] | 32.7 | 31.2 | 88.6 | 94.4 |
| C[C@]1(O)C[C@@H](n2ccc3cc(OCCN4CCC5(CC4)C(=O)Nc4ccc(C#N)cc45)cnc32)C1 [Compound 410, 2-oxo-1′-[2-({1-[(cis)-3-hydroxy-3-methylcyclobutyl]-1H-pyrrolo[2,3-b]pyridin-5-yl}oxy)ethyl]-1,2-dihydrospiro[indole-3,4′-piperidine]-5-carbonitrile] | 92.4 | 64.1 | 206 | 269 |
| O=C1Nc2ccc(Cl)cc2C12CCN(CCOc1cnc(C3(CO)CC3)nc1)CC2 [Compound 333, 5-chloro-1′-[2-({2-[1-(hydroxymethyl)cyclopropyl]pyrimidin-5-yl}oxy)ethyl]-1,2-dihydrospiro[indole-3,4′-piperidin]-2-one] | 74 | 43 | 152 | 205 |
| C[C@]1(O)C[C@@H](n2ncc3cc(OCCN4CCC5(CC4)C(=O)Nc4ccc(Cl)cc45)cnc32)C1 (single isomer, unassigned) [Compound 357, 5-chloro-1′-[2-({1-[(cis)-3-hydroxy-3-methylcyclobutyl]-1H-pyrazolo[3,4-b]pyridin-5-yl}oxy)ethyl]-1,2-dihydrospiro[indole-3,4′-piperidin]-2-one] | 28.1 | 22.3 | 61.2 | 91.6 |
| CN1C(=O)Cc2cc(OCCN3CCC4(CC3)C(=O)Nc3ccc(Cl)cc34)ccc21 [Compound 65, 5-chloro-1′-{2-[(1-methyl-2-oxo-2,3-dihydro-1H-indol-5-yl)oxy]ethyl}-1,2-dihydrospiro[indole-3,4′-piperidin]-2-one] | 96.8 | 87.5 | 318 | 294 |
| O=C1Nc2ccc(Cl)cc2C12CCN(CCOc1ccc(S(=O)(=O)C3CC3)cc1)CC2 [Compound 43, 5-chloro-1′-{2-[4-(cyclopropanesulfonyl)phenoxy]ethyl}-1,2-dihydrospiro[indole-3,4′-piperidin]-2-one] | 19.4 | 33.1 | 52.2 | 86.6 |
| Cc1ccc2c(c1)C1(CCN(CCOc3ccc(S(C)(=O)=O)cc3)CC1)C(=O)N2 [Compound 66, 1′-[2-(4-methanesulfonylphenoxy)ethyl]-5-methyl-1,2-dihydrospiro[indole-3,4′-piperidin]-2-one] | 97.6 | 108 | 246 | 322 |
| CC(=O)N1CCCc2cc(OCCN3CCC4(CC3)C(=O)N(C)c3ccccc34)ccc21 [Compound 36, 1′-{2-[(1-acetyl-1,2,3,4-tetrahydroquinolin-6-yl)oxy]ethyl}-1-methyl-1,2-dihydrospiro[indole-3,4′-piperidin]-2-one] | 1710 | 919 | > 4000 | > 4000 |
| [2H]C([2H])([2H])[C@]1(O)C[C@@H](N2C(=O)CCc3cc(OCCN4CCC5(CC4)C(=O)Nc4ccc(Cl)cc45)cnc32)C1 [Compound 461, 5-chloro-1′-[2-({7-oxo-8-[(cis)-3-hydroxy-3-(^2H3)methylcyclobutyl]-5,6,7,8-tetrahydro-1,8-naphthyridin-3-yl}oxy)ethyl]-1,2-dihydrospiro[indole-3,4′-piperidin]-2-one] | 28.8 | 28.1 | 69.2 | 75.5 |
| C[C@]1(O)C[C@@H](n2c(=O)ccc3cc(OCCN4CCC5(CC4)C(=O)Nc4ccc(OC(F)F)cc45)cnc32)C1 [Compound 328, 5-(difluoromethoxy)-1′-[2-({7-oxo-8-[(cis)-3-hydroxy-3-methylcyclobutyl]-7,8-dihydro-1,8-naphthyridin-3-yl}oxy)ethyl]-1,2-dihydrospiro[indole-3,4′-piperidin]-2-one] | 23.9 | 34.1 | 79.9 | 92.1 |
| C[C@]1(O)C[C@H](n2ncc3cc(OCCN4CCC5(CC4)C(=O)Nc4ccc(Cl)cc45)cnc32)C1 (single isomer, unassigned) [Compound 408, 5-chloro-1′-[2-({1-[(trans)-3-hydroxy-3-methylcyclobutyl]-1H-pyrazolo[3,4-b]pyridin-5-yl}oxy)ethyl]-1,2-dihydrospiro[indole-3,4′-piperidin]-2-one] | 43.6 | 23.1 | 84.8 | 121 |
| O=C1Nc2ccc(Cl)cc2C12CCN(CCOc1ccc3nccnc3c1)CC2 [Compound 62, 5-chloro-1′-[2-(quinoxalin-6-yloxy)ethyl]-1,2-dihydrospiro[indole-3,4′-piperidin]-2-one] | 120 | 165 | 407 | 390 |
